# In ChEMBL document CHEMBL5241129, “Design and synthesis of novel orexin 2 receptor agonists with a 1,3,5‑trioxazatriquinane skeleton” (Bioorg Med Chem Lett, 2023):
# Activity calls are given as the source filed them. No cut-off for these calls is given here.
# Target: T1, Orexin/Hypocretin receptor type 1 (Homo sapiens, UniProt O43613)
# T1 sequence (O43613 whole entry): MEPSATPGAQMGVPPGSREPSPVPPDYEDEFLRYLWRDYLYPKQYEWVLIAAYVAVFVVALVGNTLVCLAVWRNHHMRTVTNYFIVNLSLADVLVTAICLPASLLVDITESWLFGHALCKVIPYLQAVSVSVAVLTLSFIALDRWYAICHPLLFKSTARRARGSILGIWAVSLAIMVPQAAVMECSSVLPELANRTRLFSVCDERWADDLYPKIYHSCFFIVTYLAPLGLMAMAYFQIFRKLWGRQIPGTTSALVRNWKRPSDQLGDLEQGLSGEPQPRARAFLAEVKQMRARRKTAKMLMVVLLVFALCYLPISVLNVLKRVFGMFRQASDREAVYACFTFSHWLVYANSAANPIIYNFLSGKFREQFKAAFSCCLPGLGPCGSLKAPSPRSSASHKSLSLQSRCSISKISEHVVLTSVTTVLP
# Assay: Antagonist activity at OX1R (unknown origin)
# Details: not given
row,SMILES,Ki [nM]
1,COc1ccc(C(=O)Nc2cccc([C@@]3(C)O[C@@H]4CO[C@H]5N4[C@@H]3O[C@]5(C)c3cccc(NC(=O)c4ccc(OC)cc4)c3)c2)cc1,2.17
2,COc1ccc(C(=O)Nc2cccc([C@]3(C)O[C@H]4CO[C@@H]5N4[C@H]3O[C@@]5(C)c3cccc(NC(=O)c4ccc(OC)cc4)c3)c2)cc1,5.23

# Target: T2, Orexin/Hypocretin receptor type 1 (Homo sapiens) (UniProt O43613)
# T2 sequence (whole entry): T1 sequence (O43613 whole entry)
# Assay: Agonist activity at OX1R (unknown origin) expressed in CHO cells at 10 uM by cell based calcium assay relative to orexin A
# Details: not given
row,SMILES,Emax [%]
1,CC(C)(C)OC(=O)NC[C@]1(C)O[C@@H]2CO[C@H]3N2[C@@H]1O[C@@]3(C)CNC(=O)OC(C)(C)C (stereo in doubt; (+)-20d),5.07
2,CCCCS(=O)(=O)NC[C@@]1(C)O[C@@H]2CO[C@H]3N2[C@@H]1O[C@]3(C)CNS(=O)(=O)CCCC,11.1
3,CC(C)(C)OC(=O)NC[C@@]1(C)O[C@H]2CO[C@@H]3N2[C@H]1O[C@]3(C)CNC(=O)OC(C)(C)C,4.31
4,CCCCCCCCS(=O)(=O)NC[C@]1(C)O[C@@H]2CO[C@H]3N2[C@@H]1O[C@@]3(C)CNS(=O)(=O)CCCCCCCC (stereo in doubt; (+)-28d) [listing 1 of 2 here],5.66
5,C[C@]1(CNS(C)(=O)=O)O[C@@H]2CO[C@H]3N2[C@@H]1O[C@]3(C)CNS(C)(=O)=O,5.66
6,CCCCCCCCS(=O)(=O)NC[C@@]1(C)O[C@H]2N3[C@@H](CO[C@@H]31)O[C@@]2(C)CNS(=O)(=O)CCCCCCCC,3.71
7,CN(C[C@@]1(C)O[C@@H]2CO[C@H]3N2[C@@H]1O[C@]3(C)CN(C)C(=O)OC(C)(C)C)C(=O)OC(C)(C)C,4.47
8,CCCCCCCCS(=O)(=O)NC[C@@]1(C)O[C@@H]2CO[C@H]3N2[C@@H]1O[C@]3(C)CNS(=O)(=O)CCCCCCCC (racemic),23.6
9,CCCCCCCCS(=O)(=O)NC[C@@]1(C)O[C@@H]2CO[C@H]3N2[C@@H]1O[C@@]3(C)CNS(=O)(=O)CCCCCCCC,3.86
10,CC(C)(C)NC(=O)NC[C@@]1(C)O[C@@H]2CO[C@H]3N2[C@@H]1O[C@]3(C)CNC(=O)NC(C)(C)C,2.81
11,CCCS(=O)(=O)NC[C@@]1(C)O[C@@H]2CO[C@H]3N2[C@@H]1O[C@]3(C)CNS(=O)(=O)CCC,14.2
12,CC(C)(C)OC(=O)NC[C@@]1(C)O[C@H]2N3[C@@H](CO[C@@H]31)O[C@@]2(C)CNC(=O)OC(C)(C)C,4.94
13,CCCCCCCCS(=O)(=O)N(C)C[C@@]1(C)O[C@@H]2CO[C@H]3N2[C@@H]1O[C@]3(C)CN(C)S(=O)(=O)CCCCCCCC,2.65
14,CC(C)(C)OC(=O)NC[C@@]1(C)O[C@@H]2CO[C@H]3N2[C@@H]1O[C@@]3(C)CNC(=O)OC(C)(C)C,2.21
15,CC(C)(C)OC(=O)NC[C@]1(C)O[C@@H]2CO[C@H]3N2[C@@H]1O[C@@]3(C)CNC(=O)OC(C)(C)C (stereo in doubt; 20a),30.1
16,CCCCCCCCS(=O)(=O)NC[C@]1(C)O[C@@H]2CO[C@H]3N2[C@@H]1O[C@@]3(C)CNS(=O)(=O)CCCCCCCC (stereo in doubt; 28a),11.8
17,CCCCCCCCS(=O)(=O)NC[C@@]1(C)O[C@H]2CO[C@@H]3N2[C@H]1O[C@]3(C)CNS(=O)(=O)CCCCCCCC,5.29

# Same assay, conditions: filed as agonist
row,SMILES,Emax [%]
1,CC(C)(C)OC(=O)NC[C@@]1(C)O[C@@H]2CO[C@H]3N2[C@@H]1O[C@]3(C)CNC(=O)OC(C)(C)C (racemic),54

# Target: T3, Orexin receptor type 2 (Homo sapiens, UniProt O43614)
# T3 sequence (O43614 whole entry): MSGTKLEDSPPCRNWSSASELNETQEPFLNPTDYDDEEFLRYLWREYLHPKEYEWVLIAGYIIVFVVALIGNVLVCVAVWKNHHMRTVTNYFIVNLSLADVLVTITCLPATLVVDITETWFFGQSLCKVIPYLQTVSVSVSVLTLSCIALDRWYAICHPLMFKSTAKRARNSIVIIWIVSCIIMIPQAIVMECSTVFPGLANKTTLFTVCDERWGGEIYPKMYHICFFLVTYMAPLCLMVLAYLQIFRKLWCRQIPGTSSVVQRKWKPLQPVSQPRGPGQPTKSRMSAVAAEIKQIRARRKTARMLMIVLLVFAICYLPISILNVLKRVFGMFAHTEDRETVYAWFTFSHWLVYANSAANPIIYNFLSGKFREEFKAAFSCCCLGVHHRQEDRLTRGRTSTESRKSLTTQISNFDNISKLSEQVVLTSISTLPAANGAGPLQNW
# Assay: Agonist activity at OX2R (unknown origin) expressed in CHO cells by cell based calcium assay
# Details: not given
row,SMILES,EC50 [nM]
1,CCCCCCCCS(=O)(=O)NC[C@@]1(C)O[C@H]2CO[C@@H]3N2[C@H]1O[C@]3(C)CNS(=O)(=O)CCCCCCCC,2420
2,CCCCCCCCS(=O)(=O)NC[C@]1(C)O[C@@H]2CO[C@H]3N2[C@@H]1O[C@@]3(C)CNS(=O)(=O)CCCCCCCC (stereo in doubt; (+)-28d) [listing 2 of 2 here],1620

# Target: T2, Orexin/Hypocretin receptor type 1 (Homo sapiens)
# Assay: Antagonist activity at OX1R (unknown origin) expressed in CHO cells at 10 uM in presence of orexin A by cell based calcium assay
# Details: not given
row,SMILES,Activity
1,CCCCS(=O)(=O)NC[C@@]1(C)O[C@@H]2CO[C@H]3N2[C@@H]1O[C@]3(C)CNS(=O)(=O)CCCC,inactive
2,C[C@]1(CNS(C)(=O)=O)O[C@@H]2CO[C@H]3N2[C@@H]1O[C@]3(C)CNS(C)(=O)=O,inactive
3,CC(C)(C)OC(=O)NC[C@@]1(C)O[C@@H]2CO[C@H]3N2[C@@H]1O[C@]3(C)CNC(=O)OC(C)(C)C (racemic),inactive
4,CCCCCCCCS(=O)(=O)NC[C@@]1(C)O[C@@H]2CO[C@H]3N2[C@@H]1O[C@]3(C)CNS(=O)(=O)CCCCCCCC (racemic),inactive
5,CCCS(=O)(=O)NC[C@@]1(C)O[C@@H]2CO[C@H]3N2[C@@H]1O[C@]3(C)CNS(=O)(=O)CCC,inactive
6,CCCCCCCCS(=O)(=O)NC[C@]1(C)O[C@@H]2CO[C@H]3N2[C@@H]1O[C@@]3(C)CNS(=O)(=O)CCCCCCCC (stereo in doubt; 28a),inactive

# Target: T4, Orexin receptor type 2 (Homo sapiens) (UniProt O43614)
# T4 sequence (whole entry): T3 sequence (O43614 whole entry)
# Assay: Agonist activity at OX2R (unknown origin) expressed in CHO cells at 10 uM by cell based calcium assay
# Details: not given
row,SMILES,Activity
1,C[C@@]1(CNC(=O)CCc2ccccc2)O[C@H]2CO[C@@H]3N2[C@H]1O[C@@]3(C)CNC(=O)CCc1ccccc1,inactive
2,COc1cccc(C(=O)NC[C@@]2(C)O[C@H]3CO[C@@H]4N3[C@H]2O[C@]4(C)CNC(=O)c2cccc(OC)c2)c1,inactive
3,COc1ccc(C(=O)NC[C@]2(C)O[C@H]3CO[C@@H]4N3[C@H]2O[C@@]4(C)CNC(=O)c2ccc(OC)cc2)cc1,inactive
4,CC(C)(C)C(=O)NC[C@]1(C)O[C@H]2CO[C@@H]3N2[C@H]1O[C@@]3(C)CNC(=O)C(C)(C)C,inactive
5,C[C@@]1(CNC(=O)OCC(Cl)(Cl)Cl)O[C@H]2CO[C@@H]3N2[C@H]1O[C@@]3(C)CNC(=O)OCC(Cl)(Cl)Cl,inactive
6,C[C@]1(CNC(=O)/C=C/c2ccccc2)O[C@H]2CO[C@@H]3N2[C@H]1O[C@]3(C)CNC(=O)/C=C/c1ccccc1,inactive
7,COC(=O)NC[C@]1(C)O[C@H]2CO[C@@H]3N2[C@H]1O[C@@]3(C)CNC(=O)OC,inactive
8,C[C@]1(CNS(=O)(=O)c2ccccc2)O[C@H]2CO[C@@H]3N2[C@H]1O[C@]3(C)CNS(=O)(=O)c1ccccc1,inactive
9,C=CCOC(=O)NC[C@]1(C)O[C@H]2CO[C@@H]3N2[C@H]1O[C@@]3(C)CNC(=O)OCC=C,inactive
10,C[C@]1(CNC(=O)c2ccccc2)O[C@H]2CO[C@@H]3N2[C@H]1O[C@]3(C)CNC(=O)c1ccccc1,inactive
11,C[C@]1(CNC(=O)OCc2ccccc2)O[C@H]2CO[C@@H]3N2[C@H]1O[C@]3(C)CNC(=O)OCc1ccccc1,inactive
12,COc1cccc(C(=O)NC[C@]2(C)O[C@H]3CO[C@@H]4N3[C@H]2O[C@@]4(C)CNC(=O)c2cccc(OC)c2)c1,inactive
13,C[C@]1(CNC(=O)OCC(Cl)(Cl)Cl)O[C@H]2CO[C@@H]3N2[C@H]1O[C@]3(C)CNC(=O)OCC(Cl)(Cl)Cl,inactive
14,COC(=O)NC[C@@]1(C)O[C@H]2CO[C@@H]3N2[C@H]1O[C@]3(C)CNC(=O)OC,inactive
15,C[C@]1(CNC(=O)Cc2ccccc2)O[C@H]2CO[C@@H]3N2[C@H]1O[C@]3(C)CNC(=O)Cc1ccccc1,inactive
16,C[C@@]1(CNC(=O)c2ccccc2)O[C@H]2CO[C@@H]3N2[C@H]1O[C@@]3(C)CNC(=O)c1ccccc1,inactive
17,C[C@@]1(CNC(=O)OCc2ccccc2)O[C@H]2CO[C@@H]3N2[C@H]1O[C@@]3(C)CNC(=O)OCc1ccccc1,inactive
18,COc1ccc(C(=O)NC[C@@]2(C)O[C@H]3CO[C@@H]4N3[C@H]2O[C@]4(C)CNC(=O)c2ccc(OC)cc2)cc1,inactive
19,COc1ccccc1C(=O)NC[C@@]1(C)O[C@H]2CO[C@@H]3N2[C@H]1O[C@]3(C)CNC(=O)c1ccccc1OC,inactive
20,C[C@]1(CNC(=O)CCc2ccccc2)O[C@H]2CO[C@@H]3N2[C@H]1O[C@]3(C)CNC(=O)CCc1ccccc1,inactive
21,CC(=O)NC[C@@]1(C)O[C@H]2CO[C@@H]3N2[C@H]1O[C@]3(C)CNC(C)=O,inactive
22,COc1ccccc1C(=O)NC[C@]1(C)O[C@H]2CO[C@@H]3N2[C@H]1O[C@@]3(C)CNC(=O)c1ccccc1OC,inactive
23,C=CCOC(=O)NC[C@@]1(C)O[C@H]2CO[C@@H]3N2[C@H]1O[C@]3(C)CNC(=O)OCC=C,inactive
24,C[C@@]1(CNC(=O)/C=C/c2ccccc2)O[C@H]2CO[C@@H]3N2[C@H]1O[C@@]3(C)CNC(=O)/C=C/c1ccccc1,inactive
25,CC(=O)NC[C@]1(C)O[C@H]2CO[C@@H]3N2[C@H]1O[C@@]3(C)CNC(C)=O,inactive
26,C[C@@]1(CNC(=O)Cc2ccccc2)O[C@H]2CO[C@@H]3N2[C@H]1O[C@@]3(C)CNC(=O)Cc1ccccc1,inactive
27,CC(C)(C)C(=O)NC[C@@]1(C)O[C@H]2CO[C@@H]3N2[C@H]1O[C@]3(C)CNC(=O)C(C)(C)C,inactive

# Target: T2, Orexin/Hypocretin receptor type 1 (Homo sapiens)
# Assay: Agonist activity at OX1R (unknown origin) expressed in CHO cells at 10 uM by cell based calcium assay
# Details: not given
row,SMILES,Activity
1,C[C@]1(CNS(=O)(=O)c2ccccc2)O[C@H]2CO[C@@H]3N2[C@H]1O[C@]3(C)CNS(=O)(=O)c1ccccc1,inactive
